Drawing on publication PMC9967758, “Preclinical Efficacy of a PARP-1 Targeted Auger-Emitting Radionuclide in Prostate Cancer” (International Journal of Molecular Sciences, 2023), this text covers Kd for one substance.

For this assay, the target named is T1, Poly (ADP-ribose) polymerase-1 (PARP-1) (Homo sapiens, UniProt P09874).
T1 construct: gene PARP1
The assay is described as follows: radioligand saturation binding in PC-3 tumor xenografts.

T1 sequence (P09874 2-1014): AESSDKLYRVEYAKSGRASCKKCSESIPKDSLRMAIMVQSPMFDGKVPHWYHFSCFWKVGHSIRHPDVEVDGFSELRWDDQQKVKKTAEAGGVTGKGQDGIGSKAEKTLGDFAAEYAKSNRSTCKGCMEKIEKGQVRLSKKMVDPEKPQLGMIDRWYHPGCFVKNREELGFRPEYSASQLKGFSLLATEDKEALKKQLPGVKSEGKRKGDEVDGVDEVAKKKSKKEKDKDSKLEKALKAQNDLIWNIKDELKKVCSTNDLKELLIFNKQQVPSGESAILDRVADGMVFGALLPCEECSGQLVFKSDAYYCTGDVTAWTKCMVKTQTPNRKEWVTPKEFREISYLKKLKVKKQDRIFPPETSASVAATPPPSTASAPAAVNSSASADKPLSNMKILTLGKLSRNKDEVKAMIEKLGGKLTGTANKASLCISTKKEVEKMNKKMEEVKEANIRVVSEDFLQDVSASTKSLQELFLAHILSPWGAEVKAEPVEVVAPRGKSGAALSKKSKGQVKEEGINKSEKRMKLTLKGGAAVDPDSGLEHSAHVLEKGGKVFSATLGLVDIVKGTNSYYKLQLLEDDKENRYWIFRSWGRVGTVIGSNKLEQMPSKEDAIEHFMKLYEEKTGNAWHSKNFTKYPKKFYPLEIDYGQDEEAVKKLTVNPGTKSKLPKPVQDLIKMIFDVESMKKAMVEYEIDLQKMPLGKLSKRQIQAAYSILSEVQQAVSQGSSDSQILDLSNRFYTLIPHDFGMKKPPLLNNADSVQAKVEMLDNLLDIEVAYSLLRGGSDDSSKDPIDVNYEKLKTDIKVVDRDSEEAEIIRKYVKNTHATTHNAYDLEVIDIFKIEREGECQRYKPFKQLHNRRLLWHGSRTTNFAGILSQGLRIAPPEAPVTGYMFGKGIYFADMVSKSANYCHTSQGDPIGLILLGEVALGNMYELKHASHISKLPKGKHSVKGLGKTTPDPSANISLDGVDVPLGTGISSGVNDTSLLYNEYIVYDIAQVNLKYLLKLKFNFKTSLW

For [^77Br]Br-WC-DZ, the affinity, expressed as Kd, was 580 ± 250 pM.

Usually Kd stands for the free concentration of one partner at which half of the binding sites on the other are occupied at equilibrium, for simple one-to-one binding. Low readings indicate higher affinity, high ones lower affinity.
